ChEMBL document CHEMBL1153505, “Free and bound state structures of 6-O-methyl homoerythromycins and epitope mapping of their interactions with ribosomes” (Bioorg Med Chem, 2009)

Target: Bacterial 70S ribosome
Test: Inhibition of Escherichia coli ribosome
Type: subcellular

| Compound | IC50 |
| --- | --- |
| CC[C@H]1OC(=O)[C@H](C)[C@@H](O)[C@H](C)[C@@H](O[C@@H]2O[C@H](C)C[C@H](N(C)C)[C@H]2O)[C@](C)(OC)C[C@@H](C)NC(=O)[C@H](C)[C@@H](O)[C@]1(C)O | > 100000 nM |
| CC[C@H]1OC(=O)[C@H](C)[C@@H](O[C@H]2C[C@@](C)(OC)[C@@H](O)[C@H](C)O2)[C@H](C)[C@@H](O[C@@H]2O[C@H](C)C[C@H](N(C)C)[C@H]2O)[C@](C)(OC)C[C@@H](C)NC(=O)[C@H](C)[C@@H](O)[C@]1(C)O | 100 nM |
| CC[C@H]1OC(=O)[C@H](C)[C@@H](O)[C@H](C)[C@@H](O[C@@H]2O[C@H](C)C[C@H](N(C)C)[C@H]2O)[C@](C)(OC)C[C@@H](C)C(=O)N[C@H](C)[C@@H](O)[C@]1(C)O | > 100000 nM |
| CC[C@H]1OC(=O)[C@H](C)[C@@H](O[C@H]2C[C@@](C)(OC)[C@@H](O)[C@H](C)O2)[C@H](C)[C@@H](O[C@@H]2O[C@H](C)C[C@H](N(C)C)[C@H]2O)[C@](C)(OC)C[C@@H](C)C(=O)N[C@H](C)[C@@H](O)[C@]1(C)O | 1300 nM |
| CC[C@H]1OC(=O)[C@H](C)[C@@H](O[C@H]2C[C@@](C)(OC)[C@@H](O)[C@H](C)O2)[C@H](C)[C@@H](O[C@@H]2O[C@H](C)C[C@H](N(C)C)[C@H]2O)[C@](C)(O)C[C@@H](C)CN(C)[C@H](C)[C@@H](O)[C@]1(C)O [AZITHROMYCIN] | 300 nM |
